Assay results reported in PubChem BioAssay (NCI).
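1) Cells in 96-well plates. 2) Compound, 48 h, 5 concentrations. 3) Linear interpolation between surrounding doses. 4) Unreached endpoint = highest concentration. TGI: total growth inhibition.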

Tests used:
Assay in all cases: NCI anticancer screen, dose series, 48 h
786-0 renal = system: 786-0 renal
A498 renal = system: A498 renal
A549 NSCLC = system: A549 NSCLC
ACHN renal = system: ACHN renal
BT-549 breast = system: BT-549 breast
CAKI-1 renal = system: CAKI-1 renal
CCRF-CEM leukemia = system: CCRF-CEM leukemia
COLO 205 colon = system: COLO 205 colon
DU-145 prostate = system: DU-145 prostate
EKVX NSCLC = system: EKVX NSCLC
HCC-2998 colon = system: HCC-2998 colon
HCT-116 colon = system: HCT-116 colon
HCT-15 colon = system: HCT-15 colon
HL-60(TB) leukemia = system: HL-60(TB) leukemia
HOP-62 NSCLC = system: HOP-62 NSCLC
HS 578T breast = system: HS 578T breast
HT29 colon = system: HT29 colon
IGROV1 ovarian = system: IGROV1 ovarian
K-562 leukemia = system: K-562 leukemia
KM12 colon = system: KM12 colon
LOX IMVI melanoma = system: LOX IMVI melanoma
M14 melanoma = system: M14 melanoma
MALME-3M melanoma = system: MALME-3M melanoma
MCF7 breast = system: MCF7 breast
MDA-MB-231 breast = system: MDA-MB-231 breast
MDA-MB-435 = system: MDA-MB-435
MDA-N = system: MDA-N
MOLT-4 leukemia = system: MOLT-4 leukemia
NCI-H23 lung = system: NCI-H23 lung
NCI-H460 lung = system: NCI-H460 lung
NCI-H522 lung = system: NCI-H522 lung
NCI/ADR-RES ovarian = system: NCI/ADR-RES ovarian
OVCAR-3 ovarian = system: OVCAR-3 ovarian
OVCAR-4 ovarian = system: OVCAR-4 ovarian
OVCAR-5 ovarian = system: OVCAR-5 ovarian
OVCAR-8 ovarian = system: OVCAR-8 ovarian
PC-3 prostate = system: PC-3 prostate
RPMI-8226 leukemia = system: RPMI-8226 leukemia
RXF 393 renal = system: RXF 393 renal
SF-268 CNS = system: SF-268 CNS
SF-295 CNS = system: SF-295 CNS
SF-539 CNS = system: SF-539 CNS
SK-MEL-2 melanoma = system: SK-MEL-2 melanoma
SK-MEL-28 melanoma = system: SK-MEL-28 melanoma
SK-MEL-5 melanoma = system: SK-MEL-5 melanoma
SK-OV-3 ovarian = system: SK-OV-3 ovarian
SN12C renal = system: SN12C renal
SNB-19 CNS = system: SNB-19 CNS
SR leukemia = system: SR leukemia
SW-620 colon = system: SW-620 colon
T-47D breast = system: T-47D breast
TK-10 renal = system: TK-10 renal
U251 CNS = system: U251 CNS
UACC-257 melanoma = system: UACC-257 melanoma
UACC-62 melanoma = system: UACC-62 melanoma
UO-31 renal = system: UO-31 renal
HOP-92 NSCLC = system: HOP-92 NSCLC
NCI-H226 lung = system: NCI-H226 lung
SNB-75 CNS = system: SNB-75 CNS

NC(=O)/C=c1/c2ccccc2n2nc3ccccc3c12
TGI (786-0 renal): 77.4 µM
TGI (A498 renal): 79.4 µM
TGI (A549 NSCLC): > 100 µM
TGI (ACHN renal): 29.1 µM
TGI (BT-549 breast): 95.9 µM
TGI (CAKI-1 renal): 82.5 µM
TGI (CCRF-CEM leukemia): > 100 µM
TGI (COLO 205 colon): 40.6 µM
TGI (DU-145 prostate): > 100 µM
TGI (EKVX NSCLC): 42.7 µM
TGI (HCC-2998 colon): 36.8 µM
TGI (HCT-116 colon): 21 µM
TGI (HCT-15 colon): 40.8 µM
TGI (HL-60(TB) leukemia): 7.58 µM
TGI (HOP-62 NSCLC): 77.2 µM
TGI (HS 578T breast): 87.6 µM
TGI (HT29 colon): 29.8 µM
TGI (IGROV1 ovarian): 35 µM
TGI (K-562 leukemia): 53.2 µM
TGI (KM12 colon): 56.5 µM
TGI (LOX IMVI melanoma): 19.7 µM
TGI (M14 melanoma): 71.7 µM
TGI (MALME-3M melanoma): 53.4 µM
TGI (MCF7 breast): > 100 µM
TGI (MDA-MB-231 breast): 7.52 µM
TGI (MDA-MB-435): 35.1 µM
TGI (MDA-N): 35.6 µM
TGI (MOLT-4 leukemia): 7.69 µM
TGI (NCI-H23 lung): 64.1 µM
TGI (NCI-H460 lung): > 100 µM
TGI (NCI-H522 lung): 33.2 µM
TGI (NCI/ADR-RES ovarian): 50.7 µM
TGI (OVCAR-3 ovarian): 49.1 µM
TGI (OVCAR-4 ovarian): 39.4 µM
TGI (OVCAR-5 ovarian): 77.8 µM
TGI (OVCAR-8 ovarian): 27.4 µM
TGI (PC-3 prostate): > 100 µM
TGI (RPMI-8226 leukemia): 29.1 µM
TGI (RXF 393 renal): 46.5 µM
TGI (SF-268 CNS): 47.5 µM
TGI (SF-295 CNS): > 100 µM
TGI (SF-539 CNS): 31.9 µM
TGI (SK-MEL-2 melanoma): 57.1 µM
TGI (SK-MEL-28 melanoma): 33.9 µM
TGI (SK-MEL-5 melanoma): > 100 µM
TGI (SK-OV-3 ovarian): 59.3 µM
TGI (SN12C renal): 40.2 µM
TGI (SNB-19 CNS): 49.3 µM
TGI (SR leukemia): 6.16 µM
TGI (SW-620 colon): 44.5 µM
TGI (T-47D breast): > 100 µM
TGI (TK-10 renal): > 100 µM
TGI (U251 CNS): 29.3 µM
TGI (UACC-257 melanoma): 41 µM
TGI (UACC-62 melanoma): 37 µM
TGI (UO-31 renal): 77 µM

CC1=CC(C)C(C)N(CCNS(=O)(=O)c2ccc(C)cc2)c2ccccc21 (stereo not drawn)
TGI (786-0 renal): 20.8 µM
TGI (A498 renal): 19.2 µM
TGI (A549 NSCLC): > 31.6 µM
TGI (ACHN renal): 29.2 µM
TGI (BT-549 breast): 31.7 µM
TGI (CAKI-1 renal): > 31.6 µM
TGI (CCRF-CEM leukemia): 25.6 µM
TGI (COLO 205 colon): 17.3 µM
TGI (DU-145 prostate): 24.7 µM
TGI (EKVX NSCLC): > 31.6 µM
TGI (HCC-2998 colon): 30.2 µM
TGI (HCT-116 colon): 17.7 µM
TGI (HCT-15 colon): > 31.6 µM
TGI (HL-60(TB) leukemia): 22.8 µM
TGI (HOP-62 NSCLC): 27 µM
TGI (HOP-92 NSCLC): 36.1 µM
TGI (HS 578T breast): 20.7 µM
TGI (HT29 colon): 17.4 µM
TGI (IGROV1 ovarian): 23.4 µM
TGI (K-562 leukemia): 27.5 µM
TGI (KM12 colon): 37.3 µM
TGI (LOX IMVI melanoma): 17 µM
TGI (M14 melanoma): 17.5 µM
TGI (MALME-3M melanoma): 23 µM
TGI (MCF7 breast): 19.8 µM
TGI (MDA-MB-231 breast): 24.2 µM
TGI (MDA-MB-435): 18.9 µM
TGI (MDA-N): 18.8 µM
TGI (MOLT-4 leukemia): 23.5 µM
TGI (NCI-H226 lung): 17.8 µM
TGI (NCI-H23 lung): 26.9 µM
TGI (NCI-H460 lung): 19.2 µM
TGI (NCI-H522 lung): 61.1 µM
TGI (NCI/ADR-RES ovarian): 29.5 µM
TGI (OVCAR-3 ovarian): 17.1 µM
TGI (OVCAR-4 ovarian): 22.3 µM
TGI (OVCAR-5 ovarian): 31.1 µM
TGI (OVCAR-8 ovarian): 24 µM
TGI (PC-3 prostate): 30.5 µM
TGI (RPMI-8226 leukemia): 22.3 µM
TGI (RXF 393 renal): 17.7 µM
TGI (SF-268 CNS): 19.6 µM
TGI (SF-295 CNS): 19.5 µM
TGI (SF-539 CNS): 18.1 µM
TGI (SK-MEL-2 melanoma): 18 µM
TGI (SK-MEL-28 melanoma): 17.9 µM
TGI (SK-OV-3 ovarian): > 100 µM
TGI (SN12C renal): 17.1 µM
TGI (SNB-19 CNS): > 31.6 µM
TGI (SNB-75 CNS): 23.4 µM
TGI (SR leukemia): > 31.6 µM
TGI (T-47D breast): 22.3 µM
TGI (TK-10 renal): > 82.8 µM
TGI (U251 CNS): 31.7 µM
TGI (UACC-257 melanoma): 34.2 µM
TGI (UACC-62 melanoma): 17.2 µM
TGI (UO-31 renal): > 31.6 µM
